Results published in patent US20050014835A1, “Agents for Treating Diseases Caused by Nonsense Mutations” (priority 2001, published 2005).

Columns and labels:
[1] = format: in vivo; conditions: highest dose 1.2×10^−3 mol/kg/day (100×)
Experimental: In order to measure changes in body weight due to drug administration, male mdx mice (seven weeks old, four for each dose) were injected daily with NM at 1.2×10^−5 mol/kg (1× the effective dose), 1.2×10^−4 mol/kg (10×), 6.0×10^−4 mol/kg (50×), or 1.2×10^−3 mol/kg (100×) for 14 days. The body weight of each mouse was measured everyday. Other mdx mice (seven weeks old, two for each dose) were injected with GM (1.2×10^−3 mol/kg [100×]) as a control test. Body weight was also measured every day.

[2] = system: dystrophin; assay: Immunoblotting of dystrophin in cultured mdx-sk myotubes; format: cell-based, mdx mouse; conditions: 100 μg/ml, seven days
From the text: (§1) The SV40T immortalized mdx satellite cell line, mdx-sk, was newly established from the mdx mouse to test the dystrophin restoring level in cultured mdx skeletal muscle cells. The mdx-sk line was established by introducing a retroviral vector carrying a cDNA for the temperature-sensitive form of the Simian Virus 40 large T antigen (a kind gift from Dr. Drinkwater) to a primary culture of mdx myoblasts obtained from the mdx mice. The retrovirus was produced using the packaging cell line, Plat-E, as previously described (Morita, S., Kojima, T., Kitamura, T. (2000) Plat-E: an efficient andstable system for transient packaging of retroviruses. Gene Therapy 7, 1063-1066). The cell line was cultured and maintained in Dulbecco's Modified Eagle Medium (DMEM)-high glucose (4,500 mg/l) supplemented with 20% fetal calf serum at 32.5° C. in a CO2 incubator. To induce muscle differentiation, the culture medium was changed to a differentiation medium (10% horse serum in Eagle MEM) and the culture temperature was shifted to 39.5° C.
After induction of differentiation, the cells were cultured, and NM (50 μg/ml (2.0×10^−4 mol/kg) or 100 μg/ml (4.0×10^−4 mol/kg) in a differentiation medium solution) was added to the culture. Then, the cells were allowed to differentiate by culturing in the medium without an antibiotic for seven days. […]

[3] = system: TA muscle fibers; assay: Evans Blue Dye staining of degenerating muscle fibers in drug-treated mdx mice; format: in vivo; conditions: 1.2×10^−5 mol/kg/day subcutaneously for two weeks, FIG. 2
Experimental: (§2) Mdx mice were used as a dystrophy mouse model. NM was dissolved in PBS and Millipore-filtered just before injection, in order to avoid degradation during storage in solution. Mdx mice (male, seven week-old, six for each dose) were injected subcutaneously with an NM solution (137 mM NaCl, 2.68 mM KCl, 8.10 mM […], and 1.47 mM KH2PO4) prepared using PBS, at half the concentration (1.2×10^−5 mol/kg) of the solution in the GM experiment by Barton-Davis et al. (Barton-Davis, E. R., Cordiner, L. Shoturma, D. I., Leiland, S. E., Sweeney, H. L. (1999) Aminoglycoside antibiotics restore dystrophin function to skeletal muscles of mdx mice. J. Clin. Invest. 104, 375-381) every day for two weeks. Control mdx mice (n=6) and C57BL/10 (B10, n=6) mice were injected with PBS (0.1 ml) alone, every day for two weeks.
(§3) After injection, immunofluorescence and Evans Blue staining were performed to detect dystrophin. Immunofluoresce staining was carried out as follows using antibodies against the C-terminus of dystrophin. Animals were sacrificed using an overdose of ether gas. The tibialis anterior (TA) muscles were removed and frozen in melting isopentane for immunohistochemistry. Then, 7 μm transverse cryosections were prepared. […] After labeling with secondary antibodies, dystrophin was detected by fluorescence microscopy, based on fluorescence emission. […]

[4] = Ototoxicity assay: hearing threshold by auditory brain stem response; format: in vivo, Mdx mouse; conditions: 1.2×10^−4 mol/kg daily for seven days, measured one day after final injection
Experimental: One day after the final injection, the hearing threshold was measured based on auditory brain stem response, according to the method of Shapiro et al. (Shapiro, S. M., Moller, A. R., Shiu, G. K. Brain-stem auditory evoked potentials in rats with high-dose pentbarbital. (1984) Electroencephalogr. Clin. Neurophysiol. 58, 266-276).

[5] = system: dystrophin; assay: Immunoprecipitation and immunoblotting of dystrophin in muscles of NM-treated mdx mice; format: in vivo
Experimental: The left hind leg muscle (600 mg), the diaphragm (100 mg), and the cardiac muscle (100 mg) were collected from NM-treated mdx mice, NM-untreated mdx mice, and B10 mice as described above. Each of the specimens was homogenized in 15 ml of a homogenizing solution (pH 7.2) (pyrophosphate mixture, 20 mM Na4P2O7, 20 mM NaH2PO4, and 1 mM MgCl2, pH 7.1) containing 10% sucrose and 0.5 mM EDTA. The homogenization was carried out with a Teflon homogenizer at maximal speed for one minute (Mitchell, R. D., Palade, P., and Fleicher, S. (1983) Purification of morphologically intact triad structures from skeletal muscle. J. Cell Biol. 96, 1008-1016; Yoshida, M., Suzuki, A., Shimizu, T., and Ozawa, E. (1992) Proteinase-sensitive sites on isolated rabbit dystrophin. J. Biochem. 112, 433-439). The homogenate was centrifuged in an RA rotor (KUBOTA) at 9,000 rpm for 15 minutes. […]
Immunoprecipitation was performed as described by Abe et al. (Abe, M., Saitoh, O., Nakata, H., Yoda, A., and Matsuda, R. (1996) Expression of neurofilament proteins in proliferating C2C12 mouse skeletalmuscle cells. Exp. Cell Res. 229, 48-59) using muscle protein sample preparations prepared from mdx mice and B10 mice as described above. […] After boiling, the supernatant was collected, and the protein concentration thereof was determined by microburette method. […]

[6] = system: dystrophin; assay: Immunofluorescence staining of dystrophin in cultured mdx-sk myotubes; format: cell-based, mdx mouse; conditions: 50 μg/ml, seven days
From the text: as §1, with “39.5° C. […]” for “39.5° C.”
In order to examine whether NM can restore dystrophin expression in the mdx-sk cells established as described above, NM was added at a concentration of 50 μg/ml or 100 μg/ml to a differentiation medium of myotubes cultured for seven days, and then culture was continued for another seven days. […] The cells were then observed under a fluorescence microscope.

[7] = system: dystrophin; assay: Immunofluorescence staining of dystrophin in TA muscle of drug-treated mdx mice; format: in vivo
Experimental: as §2, §3

Row | Compound | lethality [1] | dystrophin (427 kDa) band by immunoblotting [2] | percentage of fibers with increased membrane permeability (EBD-positive fibers) [3] | hearing loss by auditory brain stem response [4] | dystrophin expression level restored, relative to normal B10 hind leg muscle ([5]; hind leg muscle, immunoblotting, estimated) | dystrophin bands by immunoblotting ([5]; hind leg muscles (FIG. 3(1) G, H, I), 1.2×10^−5 mol/kg/day for two weeks, intensity lower than positive control B10) | dystrophin expression by immunofluorescence staining [6] | percentage of dystrophin-positive TA muscle fibers ([7]; 1.2×10^−5 mol/kg/day subcutaneously for two weeks, FIG. 2) | dystrophin-positive fibers by immunofluorescence staining ([7]; TA muscle, 1.2×10^−5 mol/kg subcutaneously every day for two weeks)
1 | Gentamicin [GM, reference compound] | killed all of the tested mice within four hours | – | – | – | – | – | – | – | –
2 | CN(CC(=O)O)NC(=O)C[C@H](N)C[C@@H](O)CN [NM, negamycin] | not lethally toxic | a clear band was detected at the position of 427 kDa | lower in NM-treated mice than in GM-treated mice | not in NM-treated mice | about 10% | dystrophin bands were detected | strong fluorescence signals were detected | higher than in GM-treated mdx mice | detected
